{"source": "patent US10059733B2", "about": "(NUCORION PHARMACEUTICALS, INC., priority 2014, dated 2018)", "key": {"Huh7": {"test_system": "Huh7", "experiment": "TC50 assay with human cancer cell lines, 96 h: Huh7", "assay_type": "cell-based", "conditions": "Huh-7, 96 h, read-out: TC50 Huh7 (μM)", "method": "(§1) Huh7 cells were maintained at 37° C. in a humidified atmosphere at 5% CO2 in DMEM containing 10% FBS. […] The cells were then treated with each compound at concentrations ranging from 500 μM to 0 μM in triplicate in DMEM media containing 2% FBS and 0.5% DMSO and without phenol red. After 48 h of treatment at 37° C., the relative number of living cells in each well was determined by using the CellTiter 96 system (Promega) according to the manufacturer's instructions. The 3-(4,5-dimethylthiazol-2-yl)-5-(3-carboxymethoxyphenyl)-2-(4-sulfophenyl)-2H-tetrazolium (MTS) and phenazine methosulfate (PMS) reagents were added to each well of the 96-well plate and the plate was incubated at 37° C. for approximately 2 h. The absorbance at 490 nm and 650 nm in each well was then determined by using a Flexstation 3 microplate reader (Molecular Dynamics). The absorbance determined at 650 nm was then subtracted from the absorbance determined at 490 nm to correct for light scattering. The corrected absorbance values representing the relative number of live cells in each condition were then plotted as a function of compound concentration, and the data were then fit to the following sigmoidal Emax equation by using Kaleidagraph: y=(Emax*x^Slope)/(TC50^Slope+x^Slope) where y is the relative corrected absorbance value, Emax is the maximum relative inhibition, x is the compound concentration, TC50 is the concentration of the compound at which the total cell population is reduced by 50%, and Slope is the slope of the curve.\n(§2) Huh7, HEPG2, HEK293, MCF-7 and BxPC3 cell lines were maintained at 37° C. in a humidified atmosphere at 5% CO2 in DMEM containing 10% FBS. […] The cells were then treated with each compound at concentrations ranging from 500 μM to 0 μM in triplicate in DMEM media containing 2% FBS and 0.5% DMSO and without phenol red."}, "HEK293": {"test_system": "HEK293", "experiment": "TC50 assay with human cancer cell lines, 96 h: HEK293", "assay_type": "cell-based", "conditions": "HEK293, 96 h, read-out: TC50 HEK293 (μM)", "method": "as §1, §2"}, "MCF-7": {"test_system": "MCF-7", "experiment": "TC50 assay with human cancer cell lines, 96 h: MCF-7", "assay_type": "cell-based", "conditions": "MCF7, 96 h, read-out: TC50 MCF-7 (μM)", "method": "as §1, §2"}, "BxPC3": {"test_system": "BxPC3", "experiment": "TC50 assay with human cancer cell lines, 96 h: BxPC3", "assay_type": "cell-based", "conditions": "BXPC-3, 96 h, read-out: TC50 BxPC3 (μM)", "method": "as §1, §2"}, "PK9 cells": {"test_system": "PK9 cells", "experiment": "TC50 assay in PK9 cells, 48 h", "conditions": "Homo sapiens, PK9, 48 h, read-out: TC50 (μM) in PK9 cells at 48 hr", "protocol": "Huh7 cells were maintained at 37° C. in a humidified atmosphere at 5% CO2 in DMEM containing 10% FBS. […] The cells were then treated with each compound at concentrations ranging from 500 μM to 0 μM in triplicate in DMEM media containing 2% FBS and 0.5% DMSO and without phenol red. After 48 h of treatment at 37° C., the relative number of living cells in each well was determined by using the CellTiter 96 system (Promega) according to the manufacturer's instructions. The 3-(4,5-dimethylthiazol-2-yl)-5-(3-carboxymethoxyphenyl)-2-(4-sulfophenyl)-2H-tetrazolium (MTS) and phenazine methosulfate (PMS) reagents were added to each well of the 96-well plate and the plate was incubated at 37° C. for approximately 2 h. The absorbance at 490 nm and 650 nm in each well was then determined by using a Flexstation 3 microplate reader ([…]). The absorbance determined at 650 nm was then subtracted from the absorbance determined at 490 nm to correct for light scattering. The corrected absorbance values representing the relative number of live cells in each condition were then plotted as a function of compound concentration, and the data were then fit to the following sigmoidal Emax equation by using Kaleidagraph: y=(Emax*x^Slope)/(TC50^Slope+x^Slope) where y is the relative corrected absorbance value, Emax is the maximum relative inhibition, x is the compound concentration, TC50 is the concentration of the compound at which the total cell population is reduced by 50%, and Slope is the slope of the curve.\nPK9 and RPK9 cells were maintained at 37° C. in a humidified atmosphere at 5% CO2 in Roswell Park Memorial Institute (RPMI) media containing 10% FBS. […] The cells were then treated with each compound at concentrations ranging from […] to 0 μM in triplicate in RPMI media containing 2% FBS and 0.5% DMSO and without phenol red. […] The RPK9 cells were derived from the parental PK9 cell line, and are deficient for dCK activity due to the partial deletion of the dCK gene."}, "[1]": {"experiment": "pH stability in aqueous buffer (HPLC/uv)", "protocol": "In order for a prodrug to be orally bioavailable, it must be stable over a wide range of pH values. […] The relative amount of intact prodrug was then determined by first separating the intact prodrug from any potential degradation products by using reverse-phase high performance liquid chromatography (HPLC) and subsequently quantifying the relative amount of remaining prodrug by uv spectrophotometry."}, "HCV luciferase replicon": {"test_system": "HCV luciferase replicon", "experiment": "Isobologram analysis of synergism with antiviral compound in HCV luciferase replicon", "assay_type": "cell-based", "protocol": "Isobologram analysis was conducted to assess the potential synergistic interaction of representative disclosed compounds with representative antiviral compounds. The isobolgram analysis was conducted as previously described by Chou and Talalay (see Chou T. C. and Talalay P. “Analysis of combined drug effects: a new look at a very old problem.” Trends Pharmacol Sci 1983; 4:450-4; and Chou T. C. and Talalay P. “Quantitative analysis of dose-effect relationships: the combined effects of multiple drugs or enzyme inhibitors.” Adv Enzyme Regul 1984; 22:27-55; both of which are incorporated herein by reference in their entirety). The definitions of synergism are those described by Chou (see Chou, T. C. (2006) Theoretical basis, experimental design, and computerized simulation of synergism and antagonism in drug combination studies. Pharmacol Rev. 58(3):621-81, which is incorporated herein by reference in its entirety).\nIn the synergism studies described herein, the antiviral compound shown in Table 6 was assessed in combination with a representative disclosed compound, Compound 1."}, "[2]": {"experiment": "In vivo toxicology assessment in mice", "set-up": "species or system CD-1 ICR mice", "conditions": "oral gavage 20 mg/kg in Formulation I", "protocol": "All in vivo toxicology assays were performed with CD-1 ICR mice (female, 4-6 week old; 20-30 gram body weight). Compound 1 (Table 1) was first dissolved in Formulation I containing 5% dimethyl sulfoxide (DMSO), 20% solutol, 20% PEG 400, and 55% sodium phosphate (50 mM, pH 6.0). Five mice were administered with Compound 1 in Formulation I via oral gavage at a dosage of 20 mg/kg while two other mice were orally treated with Formulation I alone (no inhibitor)."}, "genotype 1a HCV": {"test_system": "genotype 1a HCV", "experiment": "Oral administration to HCV-infected chimpanzees, viral load (genotype 1a)", "assay_type": "in vivo, chimpanzee", "protocol": "Via oral gavage, two HCV-infected chimpanzees I (male, 56.49 kg and 11 years old; genotype 1b HCV) and II (male, 61.91 kg and 34 years old; genotype 1a HCV) each received a single dosage of 200 mg of Compound 1 in Formulation I while the HCV-infected chimpanzee III (male, 56.19 kg and 18 years old; genotype 1a HCV) was administered a single dosage of 260 mg of the non-phosphorylated analog of Compound 1 (Table 1) in Formulation I. After 12 hours, the HCV viral titer decreased from 24,100 to 10,200 IU/ml (or 58% drop) in Chimpanzee I, from 38,500 to 27,000 IU/ml (or 30% drop) in Chimpanzee II, and from 154,000 to 142,000 IU/ml (or 8% drop) in Chimpanzee III. […] All animals were fasted overnight prior to dosing and a minimum of 2 hours prior to scheduled blood sample collections. Viral load determinations were performed on plasma samples using the HCV TaqMan assay (COBAS® AmpliPrep/COBAS® TaqMan® HCV Test, Version 2, Test Code 1220) for quantitative analysis. […] There were no adverse effects, illness, nor distress seen with the three chimpanzees during the study requiring veterinarian intervention."}, "[3]": {"conditions": "Compound 1 0.2 nM + BMS-790052 0.010 nM"}, "[4]": {"conditions": "Compound 1 0.4 nM + BMS-790052 0.008 nM"}, "[5]": {"conditions": "Compound 1 7.1 nM + BMS-790052 0.006 nM"}, "[6]": {"conditions": "Compound 1 14.2 nM + BMS-790052 0.004 nM"}}, "data": [{"smiles": "CCCC(CCC)C(=O)Nc1ccn([C@@H]2O[C@H](CO[P@@](=O)(N[C@@H](C)C(=O)OC(C)C)Oc3ccccc3)[C@@H](O)C2(F)F)c(=O)n1", "note": "[Compound 1, (S)-isopropyl 2-(((S)-(((2R,3R,5R)-4,4-difluoro-3-hydroxy-5-(2-oxo-4-(2-propylpentanamido)pyrimidin-1(2H)-yl)tetrahydrofuran-2-yl)methoxy)(phenoxy)phosphoryl)amino)propanoate]", "values": [{"measurement": "CC50", "setting": "Huh7", "value": "3.28 ± 0.57", "unit": "µM"}, {"measurement": "CC50", "setting": "HEK293", "value": "4.1 ± 0.5", "unit": "µM"}, {"measurement": "CC50", "setting": "MCF-7", "value": "1.76 ± 0.67", "unit": "µM"}, {"measurement": "CC50", "setting": "BxPC3", "value": "7.01 ± 0.97", "unit": "µM"}, {"measurement": "CC50", "setting": "PK9 cells", "value": "25.2 ± 13.6", "unit": "µM"}, {"measurement": "% of Compound 1 remaining", "setting": "[1]; Pretreatment", "value": 100, "unit": "%"}, {"measurement": "% of Compound 1 remaining", "setting": "[1]; pH 1, aqueous buffer, 40° C., 4 hours, 200 μM", "value": 58, "unit": "%"}, {"measurement": "% of Compound 1 remaining", "setting": "[1]; pH 2, aqueous buffer, 40° C., 4 hours, 200 μM", "value": 85, "unit": "%"}, {"measurement": "% of Compound 1 remaining", "setting": "[1]; pH 4, aqueous buffer, 40° C., 4 hours, 200 μM", "value": 92, "unit": "%"}, {"measurement": "% of Compound 1 remaining", "setting": "[1]; pH 6, aqueous buffer, 40° C., 4 hours, 200 μM", "value": 100, "unit": "%"}, {"measurement": "% of Compound 1 remaining", "setting": "[1]; pH 8, aqueous buffer, 40° C., 4 hours, 200 μM", "value": 47, "unit": "%"}, {"measurement": "Combination Index", "setting": "HCV luciferase replicon; [3]", "value": 0.505}, {"measurement": "level of synergism", "setting": "HCV luciferase replicon; [3]", "value": "synergism"}, {"measurement": "Combination Index", "setting": "HCV luciferase replicon; [4]", "value": 0.410}, {"measurement": "level of synergism", "setting": "HCV luciferase replicon; [4]", "value": "synergisn"}, {"measurement": "Combination Index", "setting": "HCV luciferase replicon; [5]", "value": 0.468}, {"measurement": "level of synergism", "setting": "HCV luciferase replicon; [5]", "value": "synergism"}, {"measurement": "Combination Index", "setting": "HCV luciferase replicon; [6]", "value": 0.535}, {"measurement": "level of synergism", "setting": "HCV luciferase replicon; [6]", "value": "synergism"}, {"measurement": "Combination Index", "setting": "HCV luciferase replicon; Compound 1 42.3 nM, BMS-790052 0 nM", "value": 1.000}, {"measurement": "interaction of Compound 1 with BMS-790052 in the inhibition of the HCV luciferase replicon", "setting": "HCV luciferase replicon; co-treatment with NS5A inhibitor BMS-790052", "value": "synergism"}, {"measurement": "concentration of the single agent on the IC50 isobologram (Combination Index 1.000)", "setting": "HCV luciferase replicon; compound alone, other compound 0 nM", "value": 42.3, "unit": "nM"}, {"measurement": "internal organs after sacrifice", "setting": "[2]; after Day 7", "value": "healthy with no abnormality"}, {"measurement": "signs of toxicity", "setting": "[2]; seven day period of observation", "value": "no signs of toxicity"}, {"measurement": "drop of HCV viral titer after 12 hours", "setting": "genotype 1a HCV; Chimpanzee II, single oral dosage 200 mg", "value": 30, "unit": "%"}, {"measurement": "HCV viral titer after 12 hours", "setting": "genotype 1a HCV; Chimpanzee II, single oral dosage 200 mg in Formulation I, titer before 38,500 IU/ml", "value": "27,000 IU/ml"}, {"measurement": "effectiveness in inhibiting HCV in chimpanzees (comparison)", "setting": "genotype 1a HCV; single oral dosage, 12 hours", "value": "more effective than its non-phosphorylated analog"}]}]}
